Data from ChEMBL document CHEMBL1201862, “PubChem BioAssay data set” (2004).
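Tested at 5 concentrations; 48 h exposure; 96-well plates; endpoints linearly interpolated, else capped at highest concentration. GI50: concentration for 50% inhibition of growth.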 Calls of active or inactive are those of the source. No stated cut-off is given here; in the data, active = GI50 up to about 1.1 µM and inactive = higher.

Columns and labels:
Test in all cases: DTP human tumour cell line panel, 48 h
[1] = test system: A549
[2] = test system: CAKI-1
[3] = test system: HCT-15
[4] = test system: HT-29
[5] = test system: IGROV-1
[6] = test system: K562
[7] = test system: LOX IMVI
[8] = test system: M14
[9] = test system: MOLT-4
[10] = test system: OVCAR-5
[11] = test system: PC-3
[12] = test system: RXF 393
[13] = test system: SF-268
[14] = test system: SN12C
[15] = test system: SNB-19
[16] = test system: SR
[17] = test system: SW-620
[18] = test system: TK-10
[19] = test system: UO-31
[20] = test system: 786-0

Structure (SMILES) | GI50 [1] | GI50 [2] | GI50 [3] [µM] | GI50 [4] | GI50 [5] | GI50 [6] | GI50 [7] | GI50 [8] | GI50 [9] | GI50 [10] | GI50 [11] | GI50 [12] | GI50 [13] | GI50 [14] | GI50 [15] | GI50 [16] | GI50 [17] | GI50 [18] | GI50 [19] | GI50 [20]
Cc1ccnn1CCc1ccc(Cl)cc1Cl | 27.6 µM (inactive) | 28.1 µM (inactive) | 36.5 | 36.8 µM (inactive) | 29.6 µM (inactive) | 29.1 µM (inactive) | 33 µM (inactive) | 24.4 µM (inactive) | 13.1 µM (inactive) | 32.4 µM (inactive) | 27 µM (inactive) | 9.91 µM (inactive) | 27 µM (inactive) | 11.8 µM (inactive) | 28.6 µM (inactive) | 21.9 µM (inactive) | 54.8 µM (inactive) | 20.8 µM (inactive) | 4.63 µM (inactive) | –
CCC(=O)OCN(C)c1nc(N(C)COC(=O)CC)nc(N(C)COC(=O)CC)n1 | – | 63.8 µM (inactive) | 21.4 | 26.9 µM (inactive) | > 100 µM (inactive) | 13.7 µM (inactive) | 18 µM (inactive) | 28.1 µM (inactive) | 20.8 µM (inactive) | > 100 µM (inactive) | 27.4 µM (inactive) | 10.9 µM (inactive) | – | 39.8 µM (inactive) | > 100 µM (inactive) | 26.7 µM (inactive) | 26.9 µM (inactive) | > 100 µM (inactive) | 56.6 µM (inactive) | –
COc1cccc(-c2nc(-c3cnccn3)n(Cc3ccccc3)n2)c1 | > 100 µM (inactive) | – | > 100 | > 100 µM (inactive) | 88.7 µM (inactive) | > 100 µM (inactive) | > 100 µM (inactive) | > 100 µM (inactive) | > 100 µM (inactive) | > 100 µM (inactive) | > 100 µM (inactive) | 25.4 µM (inactive) | > 100 µM (inactive) | > 100 µM (inactive) | 90.4 µM (inactive) | > 100 µM (inactive) | > 100 µM (inactive) | > 100 µM (inactive) | 73.5 µM (inactive) | 69.5 µM (inactive)
CCOC(=O)CNC(=O)C(CSCc1ccc(Br)cc1)NC(=O)CCC(N)C(=O)OCC (stereo unspecified) | > 50 µM (inactive) | > 50 µM (inactive) | > 50 | > 50 µM (inactive) | > 50 µM (inactive) | > 50 µM (inactive) | – | > 50 µM (inactive) | > 50 µM (inactive) | > 50 µM (inactive) | > 50 µM (inactive) | > 50 µM (inactive) | > 50 µM (inactive) | > 50 µM (inactive) | > 50 µM (inactive) | > 50 µM (inactive) | > 50 µM (inactive) | – | > 50 µM (inactive) | > 50 µM (inactive)
Cc1c(S(=O)(=O)c2ccccc2)c(N)n(CCN(C)C)c1C | > 100 µM (inactive) | > 100 µM (inactive) | > 100 | > 100 µM (inactive) | > 100 µM (inactive) | > 100 µM (inactive) | – | > 100 µM (inactive) | > 100 µM (inactive) | > 100 µM (inactive) | 86.9 µM (inactive) | > 100 µM (inactive) | > 100 µM (inactive) | > 100 µM (inactive) | > 100 µM (inactive) | > 100 µM (inactive) | > 100 µM (inactive) | > 100 µM (inactive) | > 100 µM (inactive) | > 100 µM (inactive)
O=C1C(N2CCNCC2)=C(Cl)C(=O)c2ncccc21 | > 10 µM (inactive) | > 10 µM (inactive) | > 10 | > 10 µM (inactive) | > 10 µM (inactive) | > 10 µM (inactive) | – | > 10 µM (inactive) | 2.44 µM (inactive) | > 10 µM (inactive) | > 10 µM (inactive) | > 10 µM (inactive) | > 10 µM (inactive) | > 10 µM (inactive) | > 10 µM (inactive) | > 10 µM (inactive) | 3.72 µM (inactive) | > 10 µM (inactive) | – | > 10 µM (inactive)
OC[P+](CO)(CO)C12CC3CC(CC(C3)C1)C2 | > 100 µM (inactive) | > 100 µM (inactive) | > 89.5 | 48.5 µM (inactive) | 4.85 µM (inactive) | 24.5 µM (inactive) | 4.67 µM (inactive) | > 100 µM (inactive) | 26.4 µM (inactive) | > 100 µM (inactive) | > 100 µM (inactive) | > 63.2 µM (inactive) | > 100 µM (inactive) | > 100 µM (inactive) | 87.1 µM (inactive) | 16.7 µM (inactive) | > 100 µM (inactive) | > 100 µM (inactive) | > 78.3 µM (inactive) | –
COc1cc(C(=O)C2CC3(CCC2(O)c2cc(OC)c(OC)c(OC)c2)CC(=O)Nc2ccccc2C3=O)cc(OC)c1OC (stereo unspecified) | > 100 µM (inactive) | > 100 µM (inactive) | 50.6 | > 100 µM (inactive) | > 100 µM (inactive) | 63.8 µM (inactive) | 67.6 µM (inactive) | 91.2 µM (inactive) | 33 µM (inactive) | > 100 µM (inactive) | 42.6 µM (inactive) | 99.5 µM (inactive) | > 100 µM (inactive) | > 100 µM (inactive) | > 100 µM (inactive) | 29.6 µM (inactive) | > 100 µM (inactive) | > 100 µM (inactive) | 33.7 µM (inactive) | –
CN1c2ccccc2SC2C(c3ccccc3)=NOC21 (stereo unspecified) | 36.5 µM (inactive) | 40.6 µM (inactive) | 15.5 | 30.1 µM (inactive) | 41.6 µM (inactive) | 22.6 µM (inactive) | – | 38.2 µM (inactive) | 30.4 µM (inactive) | 94.8 µM (inactive) | 18 µM (inactive) | > 100 µM (inactive) | 51.8 µM (inactive) | 47.8 µM (inactive) | 73.3 µM (inactive) | 62.1 µM (inactive) | 25.1 µM (inactive) | 16.2 µM (inactive) | 35.1 µM (inactive) | 35.4 µM (inactive)
NCC(=O)N[C@H]1c2ccsc2/C(=N/O)[C@H]1O | > 100 µM (inactive) | > 100 µM (inactive) | > 100 | > 100 µM (inactive) | > 100 µM (inactive) | > 100 µM (inactive) | > 100 µM (inactive) | > 100 µM (inactive) | > 100 µM (inactive) | > 100 µM (inactive) | > 100 µM (inactive) | > 100 µM (inactive) | – | > 100 µM (inactive) | – | > 100 µM (inactive) | > 100 µM (inactive) | > 100 µM (inactive) | > 100 µM (inactive) | –
CCOC(=O)c1csc(NC(=O)C(C)N2CCCCC2)n1 (stereo unspecified) | > 100 µM (inactive) | > 100 µM (inactive) | > 100 | > 100 µM (inactive) | > 100 µM (inactive) | > 100 µM (inactive) | > 100 µM (inactive) | > 100 µM (inactive) | > 100 µM (inactive) | > 100 µM (inactive) | > 100 µM (inactive) | > 100 µM (inactive) | – | – | > 100 µM (inactive) | 2.51 µM (inactive) | > 100 µM (inactive) | > 100 µM (inactive) | > 100 µM (inactive) | –
